Experimental data: US20180207228A1, “PEPTIDE COMBINATIONS AND USES THEREOF FOR TREATING GRASS ALLERGY” (ALK-Abelló A/S, priority 2015, published 2018)
Where no end group is shown, it is not given here.

System: allergen specific T cells
Test: T cell proliferation assay (72 h) on donor derived T cell lines (TCL02/TCL03)
Format: cell-based, human
Settings: for donor coverage of homologue peptide compared with native Phleum peptide / T cell coverage of modified peptide compared to the parent peptide: 2 μg/ml; for donor coverage of homologue peptide compared with native Phleum peptide: TCL-02 DK-2, 21 donors; for T cell coverage of modified peptide compared to the parent peptide: TCL03-DK1 and DK2, 27 donors; for Proliferation % donor coverage (TCL-02 DK1): T cell lines TCL-02 DK1, 30 donors, hit criteria SI>=2, CPM>=1000; for Proliferation strength (TCL-02 DK1): T cell lines TCL-02 DK1, strength of response (average relative magnitude); for average relative magnitude: reference peptides of WO2010/089554, proliferation only
Source text: Isolated PBMCs (peripheral blood mononuclear cells) obtained from the donors described in Example 2 were CD8 depleted and the T cell lines were established by stimulating the cultures with nPhl p1, mix of nPhl p 2 and […] 5 and […] established for each of the donors tested by stimulating with the mixture of above listed allergens. Grass allergic donors were recruited (cohort DK1 including 30 grass allergic individuals, DK2 including 24 grass allergic individuals and US1 including 15 grass allergic individuals). PBMCs were isolated from freshly drawn heparinized blood by gradient centrifugation on lymphoprep (Nycomed, Norway), washed twice and re-suspended in RPMI 1640 medium with HEPES and ultraglutamine (Cambrex, Belgium) supplemented with 5% v/v human AB-serum (Cambrex, Belgium), 100 units/ml penicillin, and 0.1 mg/ml streptomycin (Sigma, St Louis, USA) (referred to as 5% AB-medium). Aliquots of the isolated PBMCs were frozen and were thawed later to stimulate the T cell lines. Additionally either fresh or thawed PBMCs were used as antigen presenting cells (APCs) in the proliferation assay as described later. In some cases the PBMCs were freezed at this stage and thawed later on to continue the experiment as described in the following. The isolated PBMCs (fresh or thawed) were CD8 depleted by MACS magnetic depletion according to the manufacturer's instructions (Miltenyi Biotec, Bergisch Gladbach, Germany). On day 0 the CD8-depleted PBMCs (2×10^6/ml) were stimulated in 1 ml bulk cultures in AB medium in 24 well plates (Nunc, Denmark) with the mixture of natural allergens: nPhl p 1 (0.5 μg/ml), mix of […]). […] On day 14 cells were harvested to obtain T cell line generation 01 (referred to as TCL01). Restimulation of T cell lines were performed in AB-medium with the thawed autologous PBMCs (10^6/well, irradiated 2500 Rad), the above mixture of natural allergens (concentration as mentioned above), and PHA-P (0.5 μg/ml, Difco, Detroit, Mich., USA). rIL-2 was added at day 17, 18 and 19. On day 24 cells were harvested to obtain T cell line generation 02 (referred as TCL02). T cells were isolated, washed, counted and used for T cell proliferation assay as described later. Remaining cells were frozen for later thawing and re-stimulations. The T cell line generation 2 (TCL02) were thawed and were re-stimulated with allogeneic Epstein Bar Virus transformed lymphoblastoid cell lines (EBV) B cells (JY cells, 10^5/well, irradiated 3500 Rad), allogeneic PBMCs (10^6/well, irradiated 2500 Rad), and 0.5 μg/ml PHA-P and subsequent addition of rIL-2 at days 3-5 to generate T cell line generation 03 (referred to as TCL03). […] To summarize ELISpot experiments were carried out at day 14 (with TCL01) and proliferation assay on either day 24 (with TCL02) or at day 34 (with TCL03). […] To ensure that all T cell epitopes regions from the major and intermediate grass allergens of the grass were identified T cell screening was carried out with either overlapping peptides or selected peptides. […] These were overlapping 20-mer peptides spanning the entire full length amino acid sequence of […] and selected high binder peptides from Phl p 4 were tested. Additionally 21, 15 mer peptides were tested which were derived from various group 1 and 5 allergens. Also, 67 peptides from homologous grass allergens were tested. Finally some reference peptides and mixes thereof were also tested. The 15-mer peptides were selected on the basis of predicted and measured promiscuous HLA binding and of sequence homology between known proteins sequences from the relevant pooideae grasses and the Bermuda grass. […] To get comprehensive data from all the donors the peptides were tested in both Fluorospot/Elispot (day 14, TCL01) and proliferation (day 24, TCL02).

TAATPATPATPATPAAVPSG [compound 340]
donor coverage of homologue peptide compared with native Phleum peptide: better donor coverage than the native peptides

LVQDDVIPANWKPDTVYTSK-OH [compound 324]
donor coverage of homologue peptide compared with native Phleum peptide: low in donor coverage

GLGSRASYEIKSKEPVESSG-OH [compound 313]
donor coverage of homologue peptide compared with native Phleum peptide: low in donor coverage

Ac-WGAIWRIDTPDKLTGPFTVR-NH2 [compound 259]
T cell coverage of modified peptide compared to the parent peptide: markedly increased T cell coverage

FIPMKSSWGA-OH [compound 135]
Proliferation % donor coverage (TCL-02 DK1): 13.79%
Proliferation strength (TCL-02 DK1): 1.50

PTPRTPPLLPPPRARDKATL-OH [compound 355]
donor coverage of homologue peptide compared with native Phleum peptide: better donor coverage than the native peptides

GFKAAVAAAAVVPPADKYKT-OH [compound 342]
donor coverage of homologue peptide compared with native Phleum peptide: better donor coverage than the native peptides

YHFDLSGKAFGAMAKKGQED-OH [compound 316]
donor coverage of homologue peptide compared with native Phleum peptide: comparable to the native peptides

WGAVWRIDTPDKLTGPFTVR-OH [compound 309]
donor coverage of homologue peptide compared with native Phleum peptide: low in donor coverage

CC[C@H](C)[C@H](NC(=O)[C@H](Cc1ccccc1)NC(=O)[C@H](C)NC(=O)[C@H](CC(=O)O)NC(=O)[C@H](Cc1ccc(O)cc1)NC(=O)[C@H](CCCCN)NC(=O)[C@H](C)NC(=O)[C@@H](N)CCC(=O)O)C(=O)N[C@@H](C)C(=O)N[C@@H](C)C(=O)N[C@@H](CC(C)C)C(=O)N[C@H](C(=O)N[C@@H](CCC(=O)O)C(=O)N[C@@H](C)C(=O)N[C@@H](CC(C)C)C(=O)N[C@@H](CCCNC(=N)N)C(=O)N[C@H](C(=O)N[C@H](C(=O)N[C@@H](C)C(=O)NCC(=O)O)[C@@H](C)CC)C(C)C)[C@@H](C)O [compound 358]
donor coverage of homologue peptide compared with native Phleum peptide: comparable donor coverage

KSSWGAIWRIDPKKPLK-OH [compound 136]
Proliferation % donor coverage (TCL-02 DK1): 17.24%
Proliferation strength (TCL-02 DK1): 1.90

KDKWIELKESWGAVWRIDTP-OH [compound 308]
donor coverage of homologue peptide compared with native Phleum peptide: comparable to the native peptides

WGAIWRIDPKKPLKGPFSIR-OH [compound 322]
donor coverage of homologue peptide compared with native Phleum peptide: not recognized by the T cell lines

IRLTSEGGAHLVQDDVIPAN-OH [compound 323]
donor coverage of homologue peptide compared with native Phleum peptide: low in donor coverage

CC[C@H](C)[C@H](NC(=O)[C@@H](NC(=O)[C@H](CCCNC(=N)N)NC(=O)[C@H](CC(C)C)NC(=O)[C@H](C)NC(=O)[C@H](CCC(=O)O)NC(=O)[C@@H](NC(=O)[C@H](CC(C)C)NC(=O)[C@@H](NC(=O)[C@H](C)NC(=O)[C@@H](NC(=O)[C@H](Cc1ccc(O)cc1)NC(=O)[C@H](C)NC(=O)[C@H](CC(=O)O)NC(=O)[C@H](Cc1ccc(O)cc1)NC(=O)[C@H](CCCCN)NC(=O)[C@H](C)NC(=O)[C@@H](N)CCC(=O)O)C(C)C)[C@@H](C)O)[C@@H](C)O)C(C)C)C(=O)N[C@@H](C)C(=O)NCC(=O)O [compound 345]
donor coverage of homologue peptide compared with native Phleum peptide: comparable donor coverage

KFIPTLVAAVKQAYAAKQAT-OH [compound 351]
donor coverage of homologue peptide compared with native Phleum peptide: loose some of the donor coverage

PEVKYAVFEAALTKAIT-OH [compound 140]
Proliferation % donor coverage (TCL-02 DK1): 55.17%
Proliferation strength (TCL-02 DK1): 8.20
average relative magnitude: around 8

SGKAFGAMAKKGQED-OH [compound 134, SGKAFGAMAKKGQED]
Proliferation % donor coverage (TCL-02 DK1): 27.59%
Proliferation strength (TCL-02 DK1): 4.00

LKKAVTAMSEAEK-OH [compound 139]
Proliferation % donor coverage (TCL-02 DK1): 20.69%
Proliferation strength (TCL-02 DK1): 2.80

CC(C)[C@H](NC(=O)[C@@H](NC(=O)[C@H](Cc1ccccc1)NC(=O)[C@H](CCCCN)NC(=O)[C@H](CC(=O)O)NC(=O)[C@H](CC(N)=O)NC(=O)[C@H](C)NC(=O)[C@@H]1CCCN1C(=O)[C@H](C)NC(=O)[C@H](C)NC(=O)[C@H](CC(N)=O)NC(=O)[C@H](C)NC(=O)[C@H](C)NC(=O)[C@@H](NC(=O)[C@H](C)NC(=O)[C@H](C)NC(=O)[C@@H](NC(=O)[C@@H](N)CCCNC(=N)N)[C@@H](C)O)[C@@H](C)O)[C@@H](C)O)C(=O)N[C@@H](Cc1ccccc1)C(=O)N[C@@H](CCC(=O)O)C(=O)O [compound 348]
donor coverage of homologue peptide compared with native Phleum peptide: comparable donor coverage

WGAIWRIDTPDKLTGPFTVR-NH2 [compound 258]
T cell coverage of modified peptide compared to the parent peptide: markedly increased T cell coverage

CC[C@H](C)[C@H](NC(=O)[C@H](C)NC(=O)[C@H](CCCCN)NC(=O)[C@@H](NC(=O)[C@H](CC(C)C)NC(=O)[C@H](C)NC(=O)[C@H](C)NC(=O)[C@H](CCC(=O)O)NC(=O)[C@H](Cc1ccccc1)NC(=O)[C@@H](NC(=O)[C@H](C)NC(=O)[C@H](Cc1ccc(O)cc1)NC(=O)[C@H](CCCCN)NC(=O)[C@@H](NC(=O)[C@H](CCC(=O)O)NC(=O)[C@@H]1CCCN1C(=O)[C@@H](N)CCCCN)C(C)C)C(C)C)[C@@H](C)O)C(=O)N[C@H](C(=O)O)[C@@H](C)O [compound 242]
Proliferation % donor coverage (TCL-02 DK1): 48.28%
Proliferation strength (TCL-02 DK1): 7.20

DKYKTFVETFGTATNKAFVE-OH [compound 343]
donor coverage of homologue peptide compared with native Phleum peptide: better donor coverage than the native peptides

SDEFIPMKSSWGAIWRIDPK-OH [compound 321]
donor coverage of homologue peptide compared with native Phleum peptide: comparable to the native peptides

SEFEDVIPEGWKADTSYSAK-OH [compound 311]
donor coverage of homologue peptide compared with native Phleum peptide: low in donor coverage

YHFDLSGHAFGSMAKKGEEQ-OH [compound 303]
donor coverage of homologue peptide compared with native Phleum peptide: comparable to the native peptides

KYDAYVATLTEALR-OH [compound 137]
Proliferation % donor coverage (TCL-02 DK1): 27.59%
Proliferation strength (TCL-02 DK1): 6.30

CC[C@H](C)[C@H](NC(=O)[C@H](CCCCN)NC(=O)[C@H](CCC(=O)O)NC(=O)[C@@H](NC(=O)[C@H](CC(C)C)NC(=O)[C@H](CCCCN)NC(=O)[C@H](CCC(N)=O)NC(=O)[C@@H](N)CCC(=O)O)[C@@H](C)CC)C(=O)N[C@@H](CC(N)=O)C(=O)N[C@@H](C)C(=O)NCC(=O)N[C@@H](Cc1ccccc1)C(=O)N[C@@H](CCCCN)C(=O)N[C@@H](C)C(=O)N[C@@H](C)C(=O)N[C@H](C(=O)N[C@@H](C)C(=O)N[C@@H](C)C(=O)N[C@@H](C)C(=O)N[C@@H](C)C(=O)O)C(C)C [compound 341]
donor coverage of homologue peptide compared with native Phleum peptide: better donor coverage than the native peptides

VRYTTEGGTKSEFEDVIPEG-OH [compound 310]
donor coverage of homologue peptide compared with native Phleum peptide: low in donor coverage

KFIPTLVAAVKQAYAAKQ-OH [compound 138]
Proliferation % donor coverage (TCL-02 DK1): 31.03%
Proliferation strength (TCL-02 DK1): 4.20

APEVKYAVFEAGLTKAITAM-OH [compound 365]
donor coverage of homologue peptide compared with native Phleum peptide: loose some of the donor coverage

IDKVDAAYRTAATAANAAPA-OH [compound 347]
donor coverage of homologue peptide compared with native Phleum peptide: comparable donor coverage

SLGAAYDSYKFIPTLVAAVK-OH [compound 350]
donor coverage of homologue peptide compared with native Phleum peptide: loose some of the donor coverage

KKPEVKYAVFEAALTKAIT-OH [compound 143]
Proliferation % donor coverage (TCL-02 DK1): 48.28%
Proliferation strength (TCL-02 DK1): 7.50
average relative magnitude: around 8

GRGSGSSFEIKSTKPESSSG-OH [compound 301]
donor coverage of homologue peptide compared with native Phleum peptide: comparable to the native peptides

ASRRPWWASVPPADKFKTFA-OH [compound 356]
donor coverage of homologue peptide compared with native Phleum peptide: loose some of the donor coverage
